This test concerns the target mouse PKCα (Mus musculus, UniProt P20444). Kind of test: PKC binding assay.

This is an account of results in publication PMC3057395 (ChemMedChem, 2009).

SMILES strings stand for the structures. Read-outs that look alike come from different tables or passages of the source.

Broadly, the Ki is the equilibrium dissociation constant of an inhibitor or competing ligand from its target. Take `CC(C)[C@H]1C(=O)N[C@H](CO)Cc2ccc(O)cc2N1C` [compound 2, 9-Hydroxy-5-hydroxymethyl-2-isopropyl-1-methyl-(2S,5S)-1,4,5,6-tetrahydro-2H-benzo[e][1,4] diazocin-3-one]: the Ki (read-out: Ki [nM] ± SEM) amounted to 4840 ± 320 nM.

As for `C=CCCCCCOc1ccc2c(c1)N(C)[C@@H](C(C)C)C(=O)N[C@H](CO)C2` [compound 3, 9-Hept-6-enyloxy-5-hydroxymethyl-2-isopropyl-1-methyl-1,4,5,6-tetrahydro-2H-benzo[e][1,4] diazocin-3-one], the Ki amounted to 5.4 ± 0.1 nM.

`CC(=O)SCCCOc1ccc2c(c1)N(C)[C@@H](C(C)C)C(=O)N[C@H](CO)C2` [compound 9, Thioacetic acid S-[3-(5-hydroxymethyl-2-isopropyl-1-methyl-3-oxo-1,2,3,4,5,6-hexahydro-benzo[e] [1,4]diazocin-9-yloxy)-propyl] ester]: the Ki was 21 ± 2.8 nM.

Compound `CC(=O)SCCCCOc1ccc2c(c1)N(C)[C@@H](C(C)C)C(=O)N[C@H](CO)C2` [compound 10, Thioacetic acid S-[4-(5-hydroxymethyl-2-isopropyl-1-methyl-3-oxo-1,2,3,4,5,6-hexahydro-benzo [e][1,4]diazocin-9-yloxy)-butyl] ester] yielded a Ki of 15.8 ± 0.8 nM.

`CC(=O)SCCCCCOc1ccc2c(c1)N(C)[C@@H](C(C)C)C(=O)N[C@H](CO)C2` [compound 11, Thioacetic acid S-[5-(5-hydroxymethyl-2-isopropyl-1-methyl-3-oxo-1,2,3,4,5,6-hexahydro-benzo[e] [1,4]diazocin-9-yloxy)-pentyl] ester]: the Ki was found to be 6.6 ± 0.2 nM.

`CC(=O)SCCCCCCCOc1ccc2c(c1)N(C)[C@@H](C(C)C)C(=O)N[C@H](CO)C2` [compound 13, Thioacetic acid S-[7-(5-hydroxymethyl-2-isopropyl-1-methyl-3-oxo-1,2,3,4,5,6-hexahydrobenzo[e] [1,4]diazocin-9-yloxy)-heptyl] ester] had a Ki of 4.5 ± 0.4 nM.

The compound `CC(=O)SCCCCCCCCOc1ccc2c(c1)N(C)[C@@H](C(C)C)C(=O)N[C@H](CO)C2` [compound 14, Thioacetic acid S-[8-(5-hydroxymethyl-2-isopropyl-1-methyl-3-oxo-1,2,3,4,5,6-hexahydro-benzo[e] [1,4]diazocin-9-yloxy)-octyl] ester] had a Ki of 2.8 ± 0.5 nM.
